According to patent publication US20250340590A1, “PEPTIDE HAVING ANTI-INFLAMMATORY ACTIVITY AND USE THEREOF” (CAREGEN CO., LTD., priority 2021, published 2025):

Tests used:
Format in all cases: cell-based
IFNγ [1] = assay: IFNγ secretion by ELISA in LPS-induced mouse splenocytes; settings: LPS 2 μg/mL, peptide at 5 μM and 50 μM, 24 hours
Protocol: (§1) Inflammation was induced in mouse splenocytes, and the secretion amounts of inflammatory cytokines TNFα, IL-1β, and IFNγ were confirmed. In order to induce inflammation, the cells were treated with an inflammation-inducing antigen, LPS, and since TNFα corresponds to a signaling protein associated with inflammation, IL-1β corresponds to a cytokine that promotes inflammation, and IFNγ also corresponds to a cytokine that promotes inflammation, the degree of inflammation can be confirmed by measuring the secretion amounts of TNFα, IL-1B, and IFNγ.
(§2) Mouse splenocytes were dispensed into a 24-well plate at a concentration of 1×10^7 cells/well and cultured until the next day. The medium was replaced with serum-free medium, and after 4 hours, the cells were treated with LPS and the peptide of the present invention and then cultured again for another 24 hours. In order to induce inflammation, the cells were treated with LPS at 2 μg/mL, and the peptide at 5 μM and 50 μM, respectively. […]

IFNγ [2] = assay: IFNγ secretion by ELISA in mouse splenocytes induced with LPS, TGFβ and IL-23; settings: LPS 2 μg/mL, TGFβ 20 ng/ml, IL-23 20 ng/mL, 24 hours
Text: Inflammation was induced by treating mouse splenocytes with LPS, which is an inflammation-inducing antigen, and TGFβ and IL-23, which are inflammatory cytokines, and the secretion amounts of the inflammatory cytokines IL-17, IL-1β, and IFNγ were confirmed. The descriptions of IL-17, IL-1B, and IFNγ are the same as above.
(§3) Mouse splenocytes were dispensed into a 24-well plate at a concentration of 1×10^7 cells/well and cultured until the next day. The medium was replaced with serum-free medium, and after 4 hours, the cells were treated with LPS, TGFβ, and IL-23 and the peptide of the present invention and then cultured again for another 24 hours. In order to induce inflammation, the cells were treated with LPS at 2 μg/mL, TGFβ at 20 ng/ml, IL-23 at 20 ng/mL, and the peptide at 5 μM and 50 μM, respectively. The mouse splenocytes in the group in which inflammation was not induced due to untreatment with LPS, TGFβ, and IL-23 (NON); the negative control group in which the cells were treated with LPS, TGFβ, and IL-23 but not treated with the peptide (NC); and the group in which the cells were treated with LPS, TGFβ, and IL-23 along with the peptide of the present invention at the same concentration as above, respectively, were reacted as described above and the cell cultures were recovered. […]

IL-1β = IL-1β secretion by ELISA in TNFα-induced mouse splenocytes; settings: TNFα 20 nM, 24 hours
Protocol: Inflammation was induced by treating mouse splenocytes with the inflammatory cytokine TNFα, and the secretion amounts of the inflammatory cytokines IL-17, IL-1B, and IFNγ were confirmed. IL-17 corresponds to a pro-inflammatory cytokine, and the descriptions of IL-1β and IFNγ are the same as above.
as §3, with “TNFα” for “LPS, TGFβ, and IL-23”, “TNFα” for “LPS at 2 μg/mL, TGFβ”, “nM,” for “ng/ml, IL-23 at 20 ng/mL,”

TNFα [3] = assay: TNFα secretion by ELISA in LPS-induced mouse splenocytes; settings: LPS 2 μg/mL, peptide at 5 μM and 50 μM, 24 hours
Protocol: as §1, §2

TNFα [4] = assay: TNFα mRNA level by RT-PCR in LPS-induced mouse splenocytes; settings: LPS 2 μg/mL, peptide at 5 μM and 50 μM, 24 hours, compared to group not treated with the peptide
Protocol: Inflammation was induced in mouse splenocytes, and the expression levels of TNFα, and IL-6 genes, which is the inflammatory cytokines were confirmed. In order to induce inflammation, the cells were treated with LPS, an inflammation-inducing antigen, and since TNFα corresponds to a signaling protein associated with inflammation, and IL-6 corresponds to a cytokine that promotes inflammation, the degree of inflammation can be confirmed by measuring the expression levels of TNFα and IL-6 genes.
Mouse splenocytes were dispensed into a 24-well plate at a concentration of 1×10^7 cells/well and cultured until the next day. The medium was replaced with serum-free medium, and after 3 hours, the cells were treated with LPS and the peptide of the present invention and then cultured again for another 24 hours. In order to induce inflammation, the cells were treated with LPS at 2 μg/mL, and the peptide at […] and 50 μM, respectively. […] After quantifying the amount of isolated RNA, cDNA was synthesized using a cDNA synthesis kit (Intron, Korea), PCR was performed using a PCR premix (Intron, Korea) and primers for TNFα, and IL-6. […]

TWNS [peptide of the present invention]
decreased: secretion amount of IFNγ (IFNγ [1]) | secretion amount of IFNγ (IFNγ [2]; peptide at 5 μM) | secretion amount of IFNγ (IFNγ [2]; peptide at 50 μM) | secretion amount of IL-1β (IL-1β; peptide at 5 μM) | secretion amount of IL-1β (IL-1β; peptide at 50 μM) | secretion amount of TNFα (TNFα [3]) | mRNA expression level of TNFα (TNFα [4])
